From patent US20140121370A1, “NOVEL METHOD FOR PREPARING CEFMENOXIME HYDROCHLORIDE COMPOUND” (Hainan Lingkang Pharmaceutical Co., Ltd., priority 2011, published 2014)
Structures can show the parent of a compound that is named as a salt.

Test: Solubility of Cefmenoxime hydrochloride in organic solvents
Type: physicochemical
Text: According to the instant invention, after the treatment of step 1), these impurities can be separated from Cefmenoxime hydrochloride.
Treating Cefmenoxime hydrochloride crude directly with a good-poor solvent precipitation method can not achieve the desired purity.

solubility in acetone (solvent acetone): almost insoluble
solubility in ethanol (solvent ethanol): almost insoluble
solubility in ethyl acetate (solvent ethyl acetate): almost insoluble
solubility in formamide (solvent formamide): soluble
solubility in methanol (solvent methanol): slightly soluble
Compound: CO/N=C(\C(=O)N[C@@H]1C(=O)N2C(C(=O)O)=C(CSc3nnnn3C)CS[C@H]12)c1csc(N)n1 [Cefmenoxime hydrochloride, (6R,7R)-7-[(Z)-2-(2-amino-thiazol-4-yl)-2-methoxyiminoacetylamino]-3-[[(1-methyl-1H-tetrazol-5-yl)-sulfanyl]methyl]-8-oxo-5-thia-1-azabicyclo[4.2.0]oct-2-ene-2-carboxylic acid hydrochloride (2:1)]
